US11814367B2, “Inhibitors of glycogen synthase 1 (GYS1) and methods of use thereof” (Maze Therapeutics, Inc., priority 2021, dated 2023)

Legend:
[1] = target: hGYS1 enzyme (recombinant hGYS1/GN1 protein) (Homo sapiens (Human), UniProt P13807); assay: GYS1 coupled enzyme assay (PK/LDH); format: biochemical; settings: hGYS1/GN1 50 nM, UDP-Glucose 0.8 mM, G6P 1 mM; geometric mean of at least 2 runs
[2] = tested on: hGYS1 enzyme / glycogen synthesis in HeLa cells; assay: GYS1 cell based assay (glycogen synthesis, Glucose-glo); design: species or system human; settings: Homo sapiens, HeLa, 24 h, 24 h incubation, 20 mM glucose, geometric mean of at least 2 runs
Method in brief: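 HeLa cells starved 24 h in medium containing only 1× Glutamax were plated onto compound in medium with 20 mM glucose (1% DMSO final) for 24 h, 37 °C, 5% CO2. Acid lysates were Tris-quenched, glucoamylase-digested (pH 5.3, 1 h, 37 °C) and read by Glucose-glo luminescence. IC50 came from Hill fits, as geometric mean of ≥2 runs.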

[3] = target: hGYS2 enzyme (recombinant hGYS2/GN1 protein) (Homo sapiens (Human), UniProt P54840); assay: GYS2 coupled enzyme assay (PK/LDH); format: biochemical; settings: geometric mean of at least 2 assay runs on separate days, read-out: Avg_IC50
Method in brief: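 IC50 came from Hill fits of duplicate percent inhibition, based on control-normalized slopes of 340 nm NADH decline read each minute for 10 min. The reaction held recombinant hGYS2/GN1 (200 nM) with glycogen, UDP-glucose, G6P and PEP, plus PK/LDH coupling at pH 7.5 and 2.5% DMSO.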

hGYS2 enzyme (recombinant hGYS2/GN1 protein), sequence (P54840 whole entry): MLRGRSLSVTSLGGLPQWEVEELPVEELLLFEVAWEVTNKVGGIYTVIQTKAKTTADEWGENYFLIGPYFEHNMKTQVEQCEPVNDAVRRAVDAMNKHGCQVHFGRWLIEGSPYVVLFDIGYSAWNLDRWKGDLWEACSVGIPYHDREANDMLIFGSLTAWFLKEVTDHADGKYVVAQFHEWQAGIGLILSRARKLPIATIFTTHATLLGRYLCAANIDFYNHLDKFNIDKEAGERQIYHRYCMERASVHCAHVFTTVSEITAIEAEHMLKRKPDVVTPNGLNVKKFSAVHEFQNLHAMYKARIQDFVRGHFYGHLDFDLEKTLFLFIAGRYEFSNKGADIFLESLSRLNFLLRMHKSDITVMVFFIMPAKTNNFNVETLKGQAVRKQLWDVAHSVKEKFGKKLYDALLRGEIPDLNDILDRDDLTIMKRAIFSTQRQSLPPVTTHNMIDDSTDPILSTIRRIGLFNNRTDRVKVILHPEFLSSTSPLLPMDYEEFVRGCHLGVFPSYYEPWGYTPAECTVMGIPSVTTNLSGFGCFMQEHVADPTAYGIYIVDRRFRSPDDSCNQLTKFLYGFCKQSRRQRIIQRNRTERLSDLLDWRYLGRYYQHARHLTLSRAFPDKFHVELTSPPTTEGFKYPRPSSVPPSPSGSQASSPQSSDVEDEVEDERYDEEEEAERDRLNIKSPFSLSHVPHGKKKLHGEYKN
hGYS2 enzyme (recombinant hGYS2/GN1 protein), sequence (P46976 whole entry partner): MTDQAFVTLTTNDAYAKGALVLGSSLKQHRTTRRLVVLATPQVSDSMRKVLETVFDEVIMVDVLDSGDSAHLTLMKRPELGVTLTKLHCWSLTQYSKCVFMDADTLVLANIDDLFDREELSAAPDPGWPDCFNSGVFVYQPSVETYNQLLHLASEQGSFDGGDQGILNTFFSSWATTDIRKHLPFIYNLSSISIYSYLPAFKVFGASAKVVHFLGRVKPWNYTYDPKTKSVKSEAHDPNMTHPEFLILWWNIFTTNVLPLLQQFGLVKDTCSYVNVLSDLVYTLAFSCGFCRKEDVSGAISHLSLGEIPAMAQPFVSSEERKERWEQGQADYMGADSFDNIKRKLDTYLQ
hGYS1 enzyme (recombinant hGYS1/GN1 protein), sequence (P13807 whole entry): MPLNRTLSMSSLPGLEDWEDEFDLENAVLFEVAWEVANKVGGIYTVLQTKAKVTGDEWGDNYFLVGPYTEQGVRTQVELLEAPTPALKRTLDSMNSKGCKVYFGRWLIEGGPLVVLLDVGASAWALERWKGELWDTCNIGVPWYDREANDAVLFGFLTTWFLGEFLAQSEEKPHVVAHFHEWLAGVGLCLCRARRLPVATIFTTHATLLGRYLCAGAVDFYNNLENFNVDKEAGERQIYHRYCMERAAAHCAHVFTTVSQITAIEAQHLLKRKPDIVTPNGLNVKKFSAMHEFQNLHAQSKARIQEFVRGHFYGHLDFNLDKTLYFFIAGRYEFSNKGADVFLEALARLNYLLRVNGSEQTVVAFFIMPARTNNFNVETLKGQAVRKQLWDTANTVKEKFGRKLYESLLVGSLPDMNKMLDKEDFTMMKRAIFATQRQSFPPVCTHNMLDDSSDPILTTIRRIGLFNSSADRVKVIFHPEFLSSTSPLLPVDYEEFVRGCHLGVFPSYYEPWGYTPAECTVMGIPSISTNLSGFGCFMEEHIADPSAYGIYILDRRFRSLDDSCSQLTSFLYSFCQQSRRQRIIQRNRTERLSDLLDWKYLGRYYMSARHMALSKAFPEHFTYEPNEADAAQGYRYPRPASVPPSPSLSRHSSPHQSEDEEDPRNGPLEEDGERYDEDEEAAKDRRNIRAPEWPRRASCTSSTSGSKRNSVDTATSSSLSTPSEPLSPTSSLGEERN
hGYS1 enzyme (recombinant hGYS1/GN1 protein), sequence (P46976 whole entry partner): as the sequence (P46976 whole entry partner) above

IC50 [1] | IC50 [2] | IC50 [3] | Structure (SMILES)
18 nM | 250 nM | > 100000 nM | CC(C)c1ccc([C@@H](NC(=O)[C@@H]2C[C@@H](F)[C@H](C)N2C(=O)Cc2cnn[nH]2)c2ccccc2)cc1F [Compound 340, (2S,4R,5S)-4-fluoro-N-[(S)-[3-fluoro-4-(propan-2-yl)phenyl](phenyl)methyl]-5-methyl-1-[2-(1H-1,2,3-triazol-5-yl)acetyl]pyrrolidine-2-carboxamide]
34 nM | 370 nM | > 100000 nM | CC(C)c1ccc([C@@H](NC(=O)[C@@H]2C[C@@H](F)CN2C(=O)Cc2ccnnc2)c2ccccc2)cc1F [Compound 342, (2S,4R)-4-fluoro-N-[(S)-[3-fluoro-4-(propan-2-yl)phenyl](phenyl)methyl]-1-[2-(pyridazin-4-yl)acetyl]pyrrolidine-2-carboxamide]
27 nM | 460 nM | > 100000 nM | CC(C)c1ccc([C@@H](NC(=O)[C@@H]2C[C@@H](F)CN2C(=O)Cc2cccnn2)c2ccccc2)cc1F [Compound 343]
30 nM | 400 nM | > 100000 nM | CC(C)c1ccc([C@@H](NC(=O)[C@@H]2C[C@@H](F)CN2C(=O)Cc2ccncc2)c2ccccc2)cc1F [Compound 347, (2S,4R)-4-fluoro-N-[(S)-[3-fluoro-4-(propan-2-yl)phenyl](phenyl)methyl]-1-[2-(pyridin-4-yl)acetyl]pyrrolidine-2-carboxamide]
24 nM | 270 nM | > 100000 nM | CC(C)c1ccc([C@@H](NC(=O)[C@@H]2C[C@@H](F)CN2C(=O)Cc2cccnc2)c2ccccc2)cc1F [Compound 348, (2S,4R)-4-fluoro-N-[(S)-[3-fluoro-4-(propan-2-yl)phenyl](phenyl)methyl]-1-[2-(pyridin-3-yl)acetyl]pyrrolidine-2-carboxamide]
25 nM | 400 nM | > 100000 nM | CC(C)c1ccc([C@@H](NC(=O)[C@@H]2C[C@@H](F)CN2C(=O)Cc2ccccn2)c2ccccc2)cc1F [Compound 349, (2S,4R)-4-fluoro-N-[(S)-[3-fluoro-4-(propan-2-yl)phenyl](phenyl)methyl]-1-[2-(pyridin-2-yl)acetyl]pyrrolidine-2-carboxamide]
8 nM | 130 nM | > 100000 nM | Cc1nn(C)c(C)c1CC(=O)N1C[C@H](F)C[C@H]1C(=O)N[C@@H](c1ccccc1)c1ccc(C(C)C)c(F)c1 [Compound 351, (2S,4R)-4-fluoro-N-[(S)-[3-fluoro-4-(propan-2-yl)phenyl](phenyl)methyl]-1-[2-(1,3,5-trimethyl-1H-pyrazol-4-yl)acetyl]pyrrolidine-2-carboxamide]
5 nM | 110 nM | > 100000 nM | Cc1cn(CC(=O)N2C[C@H](F)C[C@H]2C(=O)N[C@@H](c2ccccc2)c2ccc(C(C)C)c(F)c2)c(=O)[nH]c1=O [Compound 352, (2S,4R)-4-fluoro-N-[(S)-[3-fluoro-4-(propan-2-yl)phenyl](phenyl)methyl]-1-[2-(5-methyl-2,4-dioxo-1,2,3,4-tetrahydropyrimidin-1-yl)acetyl]pyrrolidine-2-carboxamide]
7 nM | 90 nM | > 100000 nM | Cc1cn(CC(=O)N2C[C@H](F)C[C@H]2C(=O)N[C@@H](c2ccccc2)c2ccc(C(C)C)c(F)c2)c(=O)n(C)c1=O [Compound 353, (2S,4R)-1-[2-(3,5-dimethyl-2,4-dioxo-1,2,3,4-tetrahydropyrimidin-1-yl)acetyl]-4-fluoro-N-[(S)-[3-fluoro-4-(propan-2-yl)phenyl](phenyl)methyl] pyrrolidine-2-carboxamide]
5 nM | 60 nM | > 100000 nM | CC(C)c1ccc([C@@H](NC(=O)[C@@H]2C[C@@H](F)CN2C(=O)Cn2cnc3ccccc32)c2ccccc2)cc1F [Compound 354, (2S,4R)-1-[2-(1H-1,3-benzodiazol-1-yl)acetyl]-4-fluoro-N-[(S)-[3-fluoro-4-(propan-2-yl)phenyl](phenyl)methyl] pyrrolidine-2-carboxamide]
18 nM | 160 nM | > 100000 nM | CC(C)c1ccc([C@@H](NC(=O)[C@@H]2C[C@@H](F)CN2C(=O)Cc2cnn(C)c2)c2ccccc2)cc1F [Compound 355, (2S,4R)-4-fluoro-N-[(S)-[3-fluoro-4-(propan-2-yl)phenyl](phenyl)methyl]-1-[2-(1-methyl-1H-pyrazol-4-yl)acetyl]pyrrolidine-2-carboxamide]
13 nM | 190 nM | > 100000 nM | CC(C)c1ccc([C@@H](NC(=O)[C@@H]2C[C@@H](F)CN2C(=O)Cc2cnc3ccccn23)c2ccccc2)cc1F [Compound 356, (2S,4R)-4-fluoro-N-[(S)-[3-fluoro-4-(propan-2-yl)phenyl](phenyl)methyl]-1-(2-{imidazo[1,2-a]pyridin-3-yl}acetyl)pyrrolidine-2-carboxamide]
21 nM | 220 nM | > 100000 nM | CC(C)c1ccc([C@@H](NC(=O)[C@@H]2C[C@@H](F)CN2C(=O)Cc2ccc3ncccc3c2)c2ccccc2)cc1F [Compound 357, (2S,4R)-4-fluoro-N-[(S)-[3-fluoro-4-(propan-2-yl)phenyl](phenyl)methyl]-1-[2-(quinolin-6-yl)acetyl]pyrrolidine-2-carboxamide]
11 nM | 190 nM | > 100000 nM | CC(C)c1ccc([C@@H](NC(=O)[C@@H]2C[C@@H](F)CN2C(=O)Cc2ccc3ncnn3c2)c2ccccc2)cc1F [Compound 358, (2S,4R)-4-fluoro-N-[(S)-[3-fluoro-4-(propan-2-yl)phenyl](phenyl)methyl]-1-(2-{[1,2,4]triazolo[1,5-a]pyridin-6-yl}acetyl)pyrrolidine-2-carboxamide]
63 nM | 960 nM | > 100000 nM | CC(C)c1ccc([C@@H](NC(=O)[C@@H]2C[C@@H](F)CN2C(=O)Cn2nnnc2C(F)(F)F)c2ccccc2)cc1F [Compound 359]
19 nM | 310 nM | > 100000 nM | CC(C)c1ccc([C@@H](NC(=O)[C@@H]2C[C@@H](F)CN2C(=O)COC(=O)N(C)C)c2ccccc2)cc1F [Compound 360, 2-[(2S,4R)-4-fluoro-2-{[(S)-[3-fluoro-4-(propan-2-yl)phenyl](phenyl)methyl]carbamoyl}pyrrolidin-1-yl]-2-oxoethyl N,N-dimethylcarbamate]
90 nM | 1150 nM | > 100000 nM | CC(C)c1ccc([C@@H](NC(=O)[C@@H]2C[C@@H](F)CN2C(=O)CN(C)C(=O)N(C)C)c2ccccc2)cc1F [Compound 362, (2S,4R)-1-{2-[(dimethylcarbamoyl) (methyl)amino]acetyl}-4-fluoro-N-[(S)-[3-fluoro-4-(propan-2-yl)phenyl](phenyl)methyl] pyrrolidine-2-carboxamide]
19 nM | 320 nM | > 100000 nM | CC(C)c1ccc([C@@H](NC(=O)[C@@H]2C[C@@H](F)CN2C(=O)COC(=O)N2CCNCC2)c2ccccc2)cc1F [Compound 363, 2-[(2S,4R)-4-fluoro-2-{[(S)-[3-fluoro-4-(propan-2-yl)phenyl](phenyl)methyl]carbamoyl}pyrrolidin-1-yl]-2-oxoethyl piperazine-1-carboxylate]
80 nM | 480 nM | > 100000 nM | CC(C)c1ccc([C@@H](NC(=O)[C@@H]2C[C@@H](F)CN2C(=O)COC(=O)N2CCN(C(=O)OC(C)(C)C)CC2)c2ccccc2)cc1F [Compound 364, 1-tert-butyl 4-{2-[(2S,4R)-4-fluoro-2-{[(S)-[3-fluoro-4-(propan-2-yl)phenyl](phenyl)methyl]carbamoyl}pyrrolidin-1-yl]-2-oxoethyl} piperazine-1,4-dicarboxylate]
7 nM | 1190 nM | > 100000 nM | CC(C)c1ccc([C@@H](NC(=O)[C@@H]2C[C@@H](F)CN2C(=O)CNC(=O)N2CCNCC2)c2ccccc2)cc1F [Compound 365, N-{2-[(2S,4R)-4-fluoro-2-{[(S)-[3-fluoro-4-(propan-2-yl)phenyl](phenyl)methyl]carbamoyl}pyrrolidin-1-yl]-2-oxoethyl}piperazine-1-carboxamide]
16 nM | 470 nM | > 100000 nM | Cc1nn[nH]c1CC(=O)N1C[C@H](F)C[C@H]1C(=O)N[C@@H](c1ccccc1)c1ccc(C(C)C)c(F)c1 [Compound 367, (2S,4R)-4-fluoro-N-[(S)-[3-fluoro-4-(propan-2-yl)phenyl](phenyl)methyl]-1-[2-(4-methyl-1H-1,2,3-triazol-5-yl)acetyl]pyrrolidine-2-carboxamide]
5 nM | 150 nM | > 82300 nM | CC(C)c1ccc([C@@H](NC(=O)[C@@H]2C[C@@H](F)CN2C(=O)Cc2[nH]nnc2C(F)(F)F)c2ccccc2)cc1F [Compound 368, (2S,4R)-4-fluoro-N-[(S)-[3-fluoro-4-(propan-2-yl)phenyl](phenyl)methyl]-1-{2-[4-(trifluoromethyl)-1H-1,2,3-triazol-5-yl]acetyl}pyrrolidine-2-carboxamide]
